Data on eight compounds can be found in PubChem BioAssay (NCI).

Test systems include U251 CNS; DU-145 prostate; SK-OV-3 ovarian; COLO 205 colon; A498 renal; NCI/ADR-RES ovarian; CCRF-CEM leukemia; TK-10 renal; HCC-2998 colon; OVCAR-5 ovarian; OVCAR-8 ovarian; HT29 colon; CAKI-1 renal; K-562 leukemia; HOP-92 NSCLC; HCT-15 colon; NCI-H460 lung; HL-60(TB) leukemia.
Common to all, as to assay: inhibition of tumour cell growth, NCI panel, 48 h

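Cells were grown in 96-well plates and exposed to each compound for 48 hours at five concentrations; endpoints were interpolated linearly between bracketing concentrations, or set to the highest concentration if not reached. The concentration for full growth arrest is given as TGI.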

In the case of `COc1ccc(C2CC(c3ccc4ccccc4c3O)=NN2C(C)=O)cc1OC` (stereo unspecified), the TGI in the test with U251 CNS, with DU-145 prostate, in the test on SK-OV-3 ovarian, with COLO 205 colon, in the test with A498 renal and in the test on NCI/ADR-RES ovarian was greater than 100 µM throughout. Further, the TGI in the test on CCRF-CEM leukemia, in the test on TK-10 renal, in the test on HCC-2998 colon, with OVCAR-5 ovarian, in the test on OVCAR-8 ovarian and with HT29 colon was greater than 100 µM each time. In addition, the TGI with CAKI-1 renal, in the test with K-562 leukemia, with HOP-92 NSCLC, in the test with HCT-15 colon and in the test with NCI-H460 lung was greater than 100 µM each time.

Turning to `CN(C)CCCNc1ccnc2cc([N+](=O)[O-])ccc12`, the TGI in the test with U251 CNS was determined as 57.7 µM; in the test on DU-145 prostate it was 72.2 µM; in the test with SK-OV-3 ovarian, 62.3 µM; in the test with COLO 205 colon, 7.9 µM; with A498 renal it was 31.7 µM; in the test with NCI/ADR-RES ovarian, 50 µM. Also, the TGI is greater than 100 µM with CCRF-CEM leukemia; 65.4 µM in the test on TK-10 renal; 42.4 µM in the test on OVCAR-5 ovarian; 46.1 µM with OVCAR-8 ovarian; 6.99 µM with HT29 colon; 67.6 µM with CAKI-1 renal. For the same compound, the TGI in the test with K-562 leukemia is greater than 100 µM; with HOP-92 NSCLC, 8.13 µM; in the test on HCT-15 colon, 26.7 µM; with NCI-H460 lung, 17.7 µM.

For the compound `O=C(Nc1sccc1S(=O)(=O)c1ccc(Cl)cc1)C(F)(F)F`, the TGI in the test on U251 CNS is greater than 100 µM; in the test on DU-145 prostate, greater than 100 µM; with SK-OV-3 ovarian, greater than 100 µM; in the test on COLO 205 colon, 31.8 µM; in the test with A498 renal, greater than 100 µM; in the test with NCI/ADR-RES ovarian, greater than 100 µM. In addition, the TGI was greater than 100 µM in the test with TK-10 renal; greater than 100 µM in the test on HCC-2998 colon; greater than 100 µM in the test with OVCAR-5 ovarian; greater than 100 µM in the test on OVCAR-8 ovarian; greater than 100 µM in the test with HT29 colon; 62.5 µM with CAKI-1 renal. For the same compound, the TGI with K-562 leukemia was 35.5 µM; with HOP-92 NSCLC, greater than 100 µM; with HCT-15 colon, greater than 100 µM; in the test on NCI-H460 lung it was greater than 100 µM.

On to `COC(=O)c1c2c(c(-c3ccccc3)c3c1-c1nc(Cl)ccc1CC3)CCc1ccc(Cl)nc1-2`, for which the TGI with U251 CNS, with SK-OV-3 ovarian, in the test on COLO 205 colon, in the test with A498 renal, with CCRF-CEM leukemia and with TK-10 renal was greater than 100 µM each time. Besides, the TGI in the test with HCC-2998 colon, in the test with OVCAR-5 ovarian, in the test with OVCAR-8 ovarian, in the test with HT29 colon, in the test with HL-60(TB) leukemia and in the test on CAKI-1 renal was greater than 100 µM each time. Also, the TGI in the test on K-562 leukemia, in the test on HOP-92 NSCLC, with HCT-15 colon and with NCI-H460 lung was greater than 100 µM in each case.

As to `CCOC(=O)C(=Cc1cc(OC)ccc1OC)C(=O)OCC`, the TGI in the test on U251 CNS stood at 20 µM; in the test on SK-OV-3 ovarian it was 29.9 µM; in the test with COLO 205 colon, 17.2 µM; with A498 renal, 28.5 µM; in the test on HCC-2998 colon, 34.8 µM; in the test on OVCAR-8 ovarian, 20.9 µM. Moreover, the TGI in the test on HT29 colon stood at 17 µM; in the test with HL-60(TB) leukemia, 6.12 µM; in the test on CAKI-1 renal it was 28.1 µM; with K-562 leukemia, 27.4 µM; with HOP-92 NSCLC it was 17 µM; in the test on HCT-15 colon it was 22 µM. In the test with NCI-H460 lung, this compound yielded a TGI greater than 100 µM.

For the compound `CC#Cc1cc2c(cc1O)CC[C@@H]1[C@@H]2CC[C@]2(C)[C@@H](O)CC[C@@H]12`, the TGI with U251 CNS was 7.81 µM; with DU-145 prostate, 46.9 µM; with SK-OV-3 ovarian, greater than 62.2 µM; in the test with COLO 205 colon, 33.4 µM; in the test with A498 renal it was 27.9 µM; in the test with NCI/ADR-RES ovarian, 10.3 µM. In addition, the TGI was greater than 100 µM with CCRF-CEM leukemia; greater than 91.3 µM with TK-10 renal; 19.2 µM with HCC-2998 colon; 48.4 µM with OVCAR-5 ovarian; 19.9 µM with OVCAR-8 ovarian; 30.5 µM in the test with HT29 colon. Besides, the TGI with CAKI-1 renal is greater than 69.6 µM; in the test with K-562 leukemia, greater than 100 µM; in the test with HOP-92 NSCLC it was 26.9 µM; with HCT-15 colon, 14.2 µM; in the test on NCI-H460 lung it was 20.2 µM.

In the case of `O=C(/C=C\c1ccccc1)Oc1ccc(/C=C2\CCCCC2=O)cc1`, the TGI is greater than 100 µM in the test on U251 CNS; greater than 100 µM in the test with DU-145 prostate; 62.9 µM in the test with COLO 205 colon; greater than 100 µM in the test with A498 renal; 27.2 µM with CCRF-CEM leukemia; 43.2 µM in the test on TK-10 renal. In addition, the TGI was greater than 100 µM in the test with HCC-2998 colon; greater than 100 µM with OVCAR-5 ovarian; greater than 100 µM in the test with OVCAR-8 ovarian; 31.7 µM in the test on HT29 colon; 35.2 µM in the test on HL-60(TB) leukemia; 97.9 µM in the test with CAKI-1 renal. In addition, the results for the TGI with HOP-92 NSCLC, in the test with HCT-15 colon and in the test with NCI-H460 lung were greater than 100 µM, 79.7 µM and greater than 100 µM, respectively.

As for `CCCc1c(C(=O)OCC)[nH]c(-c2ccc(-c3[nH]c(C(=O)OCC)c(CCC)c3C(=O)OCC)o2)c1C(=O)OCC`, the TGI with U251 CNS, in the test with SK-OV-3 ovarian, in the test with COLO 205 colon, in the test on A498 renal, in the test with CCRF-CEM leukemia and in the test on TK-10 renal was greater than 100 µM in each case. In addition, the TGI with HCC-2998 colon, in the test with OVCAR-5 ovarian, with OVCAR-8 ovarian, in the test with HT29 colon, with HL-60(TB) leukemia and in the test on CAKI-1 renal was greater than 100 µM in each case. Besides, the TGI in the test with K-562 leukemia, in the test with HOP-92 NSCLC, in the test with HCT-15 colon and with NCI-H460 lung was greater than 100 µM each time.
